In patent US8211927B2, “5-phenyl-isoxazole-3-carboxamide derivatives as TRPV1 modulators” (MSD, Oss B.V., priority 2007, dated 2012):

Molecular target: T1, human VR1 (Homo sapiens, UniProt Q8NER1)
T1 construct: expressed in transfected cells
Experiment: FLIPR Calcium 3 calcium flux assay (headed Vanilloid Receptor Binding Assay), antagonist activity against capsaicin
Type: cell-based
Conditions: Chinese hamster ovary cells expressing human VR1; for inhibition at 10 µM: 10 min, highest concentration of 10 μM, read-out: TRPV1 % Mean effect at 10 μM concentration; for EC50: antagonist activity vs 30 nM capsaicin, read-out: TRPV1 pEC50 (converted)
Text: Methods to construct such recombinant cell lines are well known in the art (Sambrook et al., Molecular Cloning: a Laboratory Manual, Cold Spring Harbor Laboratory Press, Cold Spring Harbor, 2000). The compounds of the invention are thus useful in the treatment of TRPV1 mediated disorders, such as in the treatment of acute and chronic pain disorders, acute and chronic neuropathic pain, acute and chronic inflammatory pain, respiratory diseases and in lower urinary tract disorders.
Test compounds were prepared as stock solution in dimethylsulfoxide and tested for activity over several log units (ranging 100 μM-100 pM). Compounds were further diluted in assay buffer as necessary for IC50 determination.
Chinese hamster ovary cells expressing human VR1 were grown in DMEM/F12 50/50 Mix (Mediatech, Inc., Herndon, Va., USA), supplemented with 10% FetalClone II (Hyclone, Logan, Utah, USA), 1% GlutaMax (Invitrogen Corp., Carlsbad, Calif., USA), 1% Pen/Strep (Mediatech) and 0.4 mg/ml G418 (Mediatech). The day before the assay, cells were seeded into 384-well tissue culture-treated black plates with clear bottoms (Corning, Inc., Corning, N.Y., USA), at 10,000 viable cells/well in 50 μl/well of medium containing no G418.
On the day of the assay, which is the FLIPR® Calcium 3 Assay commercially available from Molecular Devices Corp., Sunnyvale, Calif. USA, the plating medium was removed and replaced with 25 μl/well 1× Calcium 3 Assay kit dye, prepared in VR1 Buffer (160 mM NaCl, 4.5 mM KCl, 10 mM HEPES, 10 mM Glucose, 2 mM CaCl2, 1 mM MgCl2 and 0.5 mM Probenecid). After 1 hour incubation at room temperature, the plates were loaded into the FLIPR (Molecular Devices, Corp.), which adds 12.5 μl of test compound in VR1 Buffer containing 4% dimethylsulfoxide and reads the subsequent change in the fluorescence of the cells to monitor agonist activity. Ten minutes after compound addition, the plates were reloaded into the FLIPR, which adds 12.5 μl of 30 nM capsaicin in VR1 Buffer and reads the subsequent change in the fluorescence of the cells to monitor antagonist activity. In this way, the same assay was used to assess both the agonist activity and antagonist activity of test compounds.

T1 sequence (Q8NER1 whole entry): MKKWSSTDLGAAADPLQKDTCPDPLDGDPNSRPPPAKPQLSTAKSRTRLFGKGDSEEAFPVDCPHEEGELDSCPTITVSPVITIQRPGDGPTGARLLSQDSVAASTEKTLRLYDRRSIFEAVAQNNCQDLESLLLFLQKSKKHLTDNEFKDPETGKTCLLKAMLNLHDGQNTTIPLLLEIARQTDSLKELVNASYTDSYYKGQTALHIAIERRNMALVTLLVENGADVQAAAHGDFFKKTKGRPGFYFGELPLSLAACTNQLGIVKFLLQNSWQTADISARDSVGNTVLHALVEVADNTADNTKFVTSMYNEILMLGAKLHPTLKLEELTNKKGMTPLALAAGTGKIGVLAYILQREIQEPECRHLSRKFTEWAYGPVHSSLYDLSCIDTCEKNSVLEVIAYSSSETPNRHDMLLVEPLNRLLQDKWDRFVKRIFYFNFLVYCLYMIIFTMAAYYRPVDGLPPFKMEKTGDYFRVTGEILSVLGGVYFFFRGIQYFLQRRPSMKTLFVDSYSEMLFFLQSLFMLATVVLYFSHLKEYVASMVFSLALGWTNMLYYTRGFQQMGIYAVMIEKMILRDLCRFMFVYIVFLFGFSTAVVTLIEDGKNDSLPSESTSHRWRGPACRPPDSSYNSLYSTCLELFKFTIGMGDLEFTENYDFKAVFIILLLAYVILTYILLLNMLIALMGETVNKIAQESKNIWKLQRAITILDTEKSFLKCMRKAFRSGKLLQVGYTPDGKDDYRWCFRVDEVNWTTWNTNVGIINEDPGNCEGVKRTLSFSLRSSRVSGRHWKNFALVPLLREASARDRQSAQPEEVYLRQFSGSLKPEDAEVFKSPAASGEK

Row | SMILES | inhibition at 10 µM [%] | EC50 [µM]
1 | O=C(NC1CCCC1)c1noc(-c2ccc(C(F)(F)F)cc2)c1F | 96 | 0.0316
2 | O=C(NC1CCCC1)c1noc(-c2ccc(C(F)(F)F)cc2)c1Br | 67 | 0.01
3 | Cc1c(C(=O)NC2CCCC2)noc1-c1ccc(C(F)(F)F)cc1 | 101 | 0.0398
4 | CCCc1c(C(=O)CC2CCCC2)noc1-c1ccc(C(F)(F)F)cc1 | 98 | 0.1
5 | O=C(NC1CCOCC1)c1noc(-c2ccc(C(F)(F)F)cc2)c1Cl | 89 | 0.0316
6 | O=C(NC1CCCC1)c1noc(-c2ccc(F)cc2)c1Cl | 98 | 0.1
7 | O=C(NC1CCCCC1)c1noc(-c2ccc(Cl)cc2)c1Cl | 88 | 0.0631
8 | O=C(Nc1cccc(CO)c1)c1noc(-c2ccc(C(F)(F)F)c(F)c2)c1Cl | 103 | 0.0316
9 | Cc1c(C(=O)NC2CCOCC2)noc1-c1ccc(C(F)(F)F)c(F)c1 | 99 | 0.0126
10 | CC[C@H](CO)NC(=O)c1noc(-c2ccc(C(F)(F)F)c(F)c2)c1C | 99 | 0.0631
11 | Cc1c(C(=O)N[C@@H](C)C(C)C)noc1-c1ccc(C(F)(F)F)c(F)c1 | 103 | 0.1
12 | O=C(NC1CCCC1)c1noc(-c2ccc(C(F)(F)F)cc2)c1Cl | 90 | 0.00398
13 | O=C(NC1CCCC1)c1noc(-c2ccc(Cl)cc2)c1Cl | 102 | 0.0158
14 | CCCC(C)NC(=O)c1noc(-c2ccc(Cl)cc2)c1Cl (centres unmarked) | 89 | 0.158
15 | O=C(NC1CCCC1)c1cc(-c2ccc(C(F)(F)F)cc2)on1 | 97 | 0.501
16 | O=C(NC1CCCC1)c1cc(-c2ccc(Cl)cc2)on1 | 17 | 
17 | CCCC(C)NC(=O)c1cc(-c2ccc(Cl)cc2)on1 (centres unmarked) | 50 | 
